The values below come from article PMC5100313, “A new tool for the chemical genetic investigation of the Plasmodium falciparum Pfnek-2 NIMA-related kinase” (Malaria Journal, 2016).

The target in this assay is T1, Pfnek-2(V24C) (Plasmodium falciparum, UniProt C0H4G2, V24C).
T1 construct: gene PF3D7_0525900
T1 sequence (C0H4G2 1-286 V24C): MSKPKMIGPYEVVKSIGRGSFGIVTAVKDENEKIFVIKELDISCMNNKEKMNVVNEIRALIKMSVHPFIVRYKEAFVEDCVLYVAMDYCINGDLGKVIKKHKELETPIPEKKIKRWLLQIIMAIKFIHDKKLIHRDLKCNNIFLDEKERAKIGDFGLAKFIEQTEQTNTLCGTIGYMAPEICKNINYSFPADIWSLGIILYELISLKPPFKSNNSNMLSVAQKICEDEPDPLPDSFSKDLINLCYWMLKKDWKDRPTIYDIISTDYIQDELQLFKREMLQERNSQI
Description: in vitro […]-ATP kinase assay (MBP substrate), washout, intact-protein LC-MS (mass shift […] Da). The format is biochemical.

As a reminder, the pIC50 is the negative decadic logarithm of the IC50, by convention in mol/L.

pIC50: −log10 of the molar value.

Turning to `C#Cc1nc(Nc2ccc(S(N)(=O)=O)cc2)nc2[nH]cnc12` [NCL-00016066, 4-(6-ethynyl-9H-purin-2-ylamino) benzene sulfonamide], the pIC50 was 6.30.
